# Experimental data taken from patent publication US11382888B2, “Combination of topical medications for the treatment of skin diseases and methods of use” (American University of Beirut, priority 2019, dated 2022).
# Columns and labels:
# [1] = general statement, no test described; cited from earlier work
# patients with ARCI = assay: Left sided vs right sided trial of the lovastatin-cholesterol combination cream in ARCI patients; assay type: in vivo, human; design: Erythema / Total score: scale not given here; conditions: left side glycolic acid only, right side also combination cream
# Excerpt: Each patient was given a severity score based on 5 criteria: (1) skin thickness and/or scaling; (2) pain, pruritus, and/or discomfort; (3) erythema; (4) impact of the condition on the ability to perform daily functions; and (5) the patient's subjective severity scoring, i.e., the patient's own assessment of the severity of the condition.
# Five patients applied the combination cream of lovastatin and cholesterol on the right side of the body only, while the glycolic acid was applied to both sides (patients 1, 2, 3, 4, and 6).
smiles,measurement,setting,value
"CC(=O)N1CCN(c2ccc(OCC3COC(Cn4ccnc4)(c4ccc(Cl)cc4Cl)O3)cc2)CC1 (racemic) [Ketoconazole, 1-acetyl-4-[4-[[2-(2,4-dichlorophenyl)-2-[(1H-imidazol-1-yl)-methyl]-1,3-dioxolan-4-yl]methoxy]phenyl]piperazine]",solubility,[1],low solubility
"O=C(O)CO [glycolic acid, hydroxyacetic acid]",% change,"patients with ARCI; patient 1, at 2 months vs baseline total score",−5.4545%
same,Ability to perform daily functions,"patients with ARCI; patient 1, at 2 months",5
same,Erythema,"patients with ARCI; patient 1, at 2 months",9
same,Pain/pruritis/discharge,"patients with ARCI; patient 1, at 2 months",6
same,Patient severity scoring,"patients with ARCI; patient 1, at 2 months",17
same,Response,"patients with ARCI; patient 1, at 2 months",Mild
same,Skin thickness/scaling,"patients with ARCI; patient 1, at 2 months",15
same,Total score,"patients with ARCI; patient 1, at 2 months",52
same,% change,"patients with ARCI; patient 1, at 3 months vs baseline total score",−54.545%
same,Ability to perform daily functions/to move,"patients with ARCI; patient 1, at 3 months",2
same,Erythema,"patients with ARCI; patient 1, at 3 months",4
same,Pain/pruritis/discharge,"patients with ARCI; patient 1, at 3 months",2
same,Patient severity scoring,"patients with ARCI; patient 1, at 3 months",8
same,Skin thickness/scaling,"patients with ARCI; patient 1, at 3 months",9
same,Total score,"patients with ARCI; patient 1, at 3 months",25
same,% change,"patients with ARCI; patient 2, at 2 months vs baseline total score",−12%
same,Ability to perform daily functions,"patients with ARCI; patient 2, at 2 months",5
same,Erythema,"patients with ARCI; patient 2, at 2 months",6
same,Pain/pruritis/discharge,"patients with ARCI; patient 2, at 2 months",6
same,Patient severity scoring,"patients with ARCI; patient 2, at 2 months",17
same,Response,"patients with ARCI; patient 2, at 2 months",Mild
same,Skin thickness/scaling,"patients with ARCI; patient 2, at 2 months",10
same,Total score,"patients with ARCI; patient 2, at 2 months",44
same,% change,"patients with ARCI; patient 2, at 3 months vs baseline total score",−58%
same,Ability to perform daily functions/to move,"patients with ARCI; patient 2, at 3 months",2
same,Erythema,"patients with ARCI; patient 2, at 3 months",4
same,Pain/pruritis/discharge,"patients with ARCI; patient 2, at 3 months",4
same,Patient severity scoring,"patients with ARCI; patient 2, at 3 months",5
same,Skin thickness/scaling,"patients with ARCI; patient 2, at 3 months",6
same,Total score,"patients with ARCI; patient 2, at 3 months",21
same,% change,"patients with ARCI; patient 3, at 2 months vs baseline total score",−3.7037%
same,Ability to perform daily functions,"patients with ARCI; patient 3, at 2 months",3
same,Erythema,"patients with ARCI; patient 3, at 2 months",3
same,Pain/pruritis/discharge,"patients with ARCI; patient 3, at 2 months",3
same,Patient severity scoring,"patients with ARCI; patient 3, at 2 months",10
same,Response,"patients with ARCI; patient 3, at 2 months",Mild
same,Skin thickness/scaling,"patients with ARCI; patient 3, at 2 months",7
same,Total score,"patients with ARCI; patient 3, at 2 months",26
same,% change,"patients with ARCI; patient 3, at 3 months vs baseline total score",−40.7407%
same,Ability to perform daily functions/to move,"patients with ARCI; patient 3, at 3 months",1
same,Erythema,"patients with ARCI; patient 3, at 3 months",2
same,Pain/pruritis/discharge,"patients with ARCI; patient 3, at 3 months",2
same,Patient severity scoring,"patients with ARCI; patient 3, at 3 months",7
same,Response,"patients with ARCI; patient 3, at 3 months",Good
same,Skin thickness/scaling,"patients with ARCI; patient 3, at 3 months",4
same,Total score,"patients with ARCI; patient 3, at 3 months",16
same,% change,"patients with ARCI; patient 4, at 2 months vs baseline total score",−41.818%
same,Ability to perform daily functions,"patients with ARCI; patient 4, at 2 months",3
same,Erythema,"patients with ARCI; patient 4, at 2 months",9
same,Pain/pruritis/discharge,"patients with ARCI; patient 4, at 2 months",4
same,Patient severity scoring,"patients with ARCI; patient 4, at 2 months",8
same,Response,"patients with ARCI; patient 4, at 2 months",Good
same,Skin thickness/scaling,"patients with ARCI; patient 4, at 2 months",8
same,Total score,"patients with ARCI; patient 4, at 2 months",32
same,% change,"patients with ARCI; patient 4, at 3 months vs baseline total score",−65.455%
same,Ability to perform daily functions/to move,"patients with ARCI; patient 4, at 3 months",2
same,Erythema,"patients with ARCI; patient 4, at 3 months",4
same,Pain/pruritis/discharge,"patients with ARCI; patient 4, at 3 months",2
same,Patient severity scoring,"patients with ARCI; patient 4, at 3 months",5
same,Skin thickness/scaling,"patients with ARCI; patient 4, at 3 months",6
same,Total score,"patients with ARCI; patient 4, at 3 months",19
same,% change,"patients with ARCI; patient 6, at 2 months vs baseline total score",−7.353%
same,Ability to perform daily functions,"patients with ARCI; patient 6, at 2 months",10
same,Erythema,"patients with ARCI; patient 6, at 2 months",13
same,Pain/pruritis/discharge,"patients with ARCI; patient 6, at 2 months",8
same,Patient severity scoring,"patients with ARCI; patient 6, at 2 months",17
same,Response,"patients with ARCI; patient 6, at 2 months",Mild
same,Skin thickness/scaling,"patients with ARCI; patient 6, at 2 months",15
same,Total score,"patients with ARCI; patient 6, at 2 months",63
same,% change,"patients with ARCI; patient 6, at 3 months vs baseline total score",−10.2941%
same,Ability to perform daily functions/to move,"patients with ARCI; patient 6, at 3 months",10
same,Erythema,"patients with ARCI; patient 6, at 3 months",13
same,Pain/pruritis/discharge,"patients with ARCI; patient 6, at 3 months",7
same,Patient severity scoring,"patients with ARCI; patient 6, at 3 months",17
same,Response,"patients with ARCI; patient 6, at 3 months",Mild
same,Skin thickness/scaling,"patients with ARCI; patient 6, at 3 months",14
same,Total score,"patients with ARCI; patient 6, at 3 months",61
